According to patent US20250276982A1, “KRAS INHIBITORS” (ASCENTAGE PHARMA (SUZHOU) CO., LTD., priority 2021, published 2025):

Assays:
Assay type in all cases: cell-based
p-ERK in AGS cells = assay: p-ERK assay in AGS cells (fixed cells, anti-p-ERK / β-Actin antibodies, IR imaging); conditions: Homo sapiens, 3 h at 37° C., p-ERK detected by antibody with β-Actin, IR fluorescence
Method: The expression of p-ERK was detected in this assay. At first, the AGS cells (40000 cells/well) were seeded in 96-well plate culture overnight and treated with KRAS-G12D compounds inhibitors at concentrations of 1, 0.33, 0.11, 0.03, 0.01, 0.004, 0.001, 0.0004, 0.0001 μM for 3 h at 37° C. Then, add an equal volume (100 μL) of 8% paraformaldehyde solution to fix and crosslink the cells to the microplate for 15 minutes. Add 100 μL of 1× permeabilization solution to wells for 30 min and add 100 μL of 1× blocking solution for 2 h. Wash with PBS 3 times after each reaction. At last, Incubation with primary antibody (Anti-mouse β-Actin and Anti-rabbit p-ERK) and secondary antibody (Goat anti-Mouse IgG H&L IRDye 800CW and Goat anti-Rabbit IgG H&L IRDye 680RW) for 2 h, As appropriate, image the microplate with an IR scanner or develop the HRP labeled microplate and read it with a spectrophotometer. The fluorescence signal was monitored using a microplate reader (Azure biosystems, Sapphire biomolecular imager) using excitation and emission wavelengths of 680 and 800 nm, respectively. Export data. The inhibitor dose-reponse curves were analyzed using normalized IC50 regression curve fitting with control based normalization.

GP2d cells = assay: Cellular proliferation assay in GP2d cells (CellTiterGlo luminescent cell viability assay); conditions: 72 hours treatment, CellTiter-Glo
Method: Example 32: Cellular Proliferation Assay in GP2d Cells
The inhibitory effect of test compounds on cellular proliferation was determined using CellTiterGlo® luminescent cell viability assay (Promega) following manufacturer's instruction.
GP2d cells (ECACC #95090715) were cultured in DMEM medium supplemented with 10% fetal bovine serum, 10 U/ml penicillin and 10 ug/ml streptomycin. Cells were plated in 96-well plates at a density of 2000 cells/well and allowed attach for […]. Then the cells were treated with various concentrations of test compounds for 72 hours. CellTiter-Glo® Reagent was added to wells and incubated for 10 minutes at room temperature. The plates were read on GloMax® 96 Microplate Luminometer or compatible microplate readers. The percentage of cellular viability was calculated as: […]

[1] = tested on: phosphorylation of ERK1/2 in AGS cells with KRAS-G12D mutation; assay: Detection of phosphorylation of ERK1/2 in AGS cells (AlphaLISA SureFire Ultra p-ERK 1/2 (Thr202/Tyr204) assay); conditions: Homo sapiens, 3 hours, AlphaLISA p-ERK 1/2 (Thr202/Tyr204)
Method: Example 33: Detection of Phosphorylation of ERK1/2 in AGS Cells
The inhibitory effect of test compounds on phosphorylation of ERK1/2 were determined using the AlphaLISA® SureFire® Ultra™ p-ERK 1/2 (Thr202/Tyr204) assay following the manufacturer's instructions (ALSU-PERK-A500, PerkinElmer Inc.).
AGS cells (ATCC CRL-1739) with KRAS-G12D mutation were cultured in DMEM medium supplemented with 10% fetal bovine serum, 10 U/ml penicillin and 10 μg/ml streptomycin. Cells were plated in 96-well plates at a density of 4000 cells/well. After 16-18 hours incubation, various concentrations of compounds were added to cells with a final concentration of 0.2% DMSO. After 3 hours, the medium was removed, and the cells were lysed in 50 uL lysis buffer. 10 uL of lysate was transferred to a half area 96-well plate, 5 ul of acceptor mix was added to wells and incubated at room temperature for 1 hour, then 5 ul of donor mix was added to wells. After 1 hour incubation at room temperature, the plate was read on an Alpha Technology-compatible plate reader, using standard AlphaLISA settings. The assays were carried out in duplicates.

SMILES	IC50 (p-ERK in AGS cells)	IC50 (GP2d cells)	IC50 [1]
Oc1cc(-c2ncc3c(N4C[C@H]5CC[C@@H](C4)N5)nc(OC[C@@]45CCCN4C[C@H](F)C5)nc3c2F)c2c(ccc3ccoc32)c1 [Example 1, 9-(4-((1R,5S)-3,8-diazabicyclo[3.2.1]octan-3-yl)-8-fluoro-2-(((2R,7aS)-2-fluorotetrahydro-1H-pyrrolizin-7a(5H)-yl)methoxy)pyrido[4,3-d]pyrimidin-7-yl)naphtho[1,2-b]furan-7-ol]	107 nM	680 nM	408 nM
Oc1cc(-c2ncc3c(N4C[C@H]5CC[C@@H](C4)N5)nc(OC[C@@]45CCCN4C[C@H](F)C5)nc3c2F)c2c3c(ccc2c1)CCC3 [Example 2, 9-(4-((1R,5S)-3,8-diazabicyclo[3.2.1]octan-3-yl)-8-fluoro-2-(((2R,7aS)-2-fluorotetrahydro-1H-pyrrolizin-7a(5H)-yl)methoxy)pyrido[4,3-d]pyrimidin-7-yl)-2,3-dihydro-1H-cyclopenta[a]naphthalen-7-ol]	11 nM	130 nM	78 nM
O=C1CCc2ccc3cc(O)cc(-c4ncc5c(N6C[C@H]7CC[C@@H](C6)N7)nc(OC[C@@]67CCCN6C[C@H](F)C7)nc5c4F)c3c21 [Example 17, 9-(4-((1R,5S)-3,8-diazabicyclo[3.2.1]octan-3-yl)-8-fluoro-2-(((2R,7aS)-2-fluorotetrahydro-1H-pyrrolizin-7a(5H)-yl)methoxy)pyrido[4,3-d]pyrimidin-7-yl)-7-hydroxy-2,3-dihydro-1H-cyclopenta[a]naphthalen-1-one]	272 nM	16000 nM	–
OCC1Cc2ccc3cc(O)cc(-c4ncc5c(N6C[C@H]7CC[C@@H](C6)N7)nc(OC[C@@]67CCCN6C[C@H](F)C7)nc5c4F)c3c2C1 (stereo partly drawn) [Example 18, 9-(4-((1R,5S)-3,8-diazabicyclo[3.2.1]octan-3-yl)-8-fluoro-2-(((2R,7aS)-2-fluorotetrahydro-1H-pyrrolizin-7a(5H)-yl)methoxy)pyrido[4,3-d]pyrimidin-7-yl)-2-(hydroxymethyl)-2,3-dihydro-1H-cyclopenta[a]naphthalen-7-ol]	240 nM	17000 nM	–
Oc1cc(-c2ncc3c(N4C[C@H]5CC[C@@H](C4)N5)nc(OC[C@@]45CCCN4C[C@H](F)C5)nc3c2F)c2c(c1)c(Cl)c1n2CCC1 [Example 20, 5-(4-((1R,5S)-3,8-diazabicyclo[3.2.1]octan-3-yl)-8-fluoro-2-(((2R,7aS)-2-fluorotetrahydro-1H-pyrrolizin-7a(5H)-yl)methoxy)pyrido[4,3-d]pyrimidin-7-yl)-9-chloro-2,3-dihydro-1H-pyrrolo[1,2-a]indol-7-ol]	226 nM	2410 nM	–
Oc1cc(-c2ncc3c(N4C[C@H]5CC[C@@H](C4)N5)nc(OC[C@@]45CCCN4C[C@H](F)C5)nc3c2F)c2c3c(ccc2c1)COC3 [Example 21, 9-(4-((1R,5S)-3,8-diazabicyclo[3.2.1]octan-3-yl)-8-fluoro-2-(((2R,7aS)-2-fluorotetrahydro-1H-pyrrolizin-7a(5H)-yl)methoxy)pyrido[4,3-d]pyrimidin-7-yl)-1,3-dihydronaphtho[1,2-c]furan-7-ol]	52 nM	263 nM	–
Oc1cc(-c2ncc3c(N4C[C@H]5CC[C@@H](C4)N5)nc(OCC4(CN5C6CCC5COC6)CC4)nc3c2F)c2c3c(ccc2c1)CCC3 [Example 23, 9-(2-((1-((3-oxa-8-azabicyclo[3.2.1]octan-8-yl)methyl)cyclopropyl)methoxy)-4-((1R,5S)-3,8-diazabicyclo[3.2.1]octan-3-yl)-8-fluoropyrido[4,3-d]pyrimidin-7-yl)-2,3-dihydro-1H-cyclopenta[a]naphthalen-7-ol]	33 nM	908 nM	–
Oc1cc(-c2ccc3c(N4C[C@H]5CC[C@@H](C4)N5)nc(OCC4(CN5CC6COCC6C5)CC4)nc3c2F)c2c3c(ccc2c1)CCC3 (stereo partly drawn) [Example 24, 9-(4-((1R,5S)-3,8-diazabicyclo[3.2.1]octan-3-yl)-8-fluoro-2-((1-((tetrahydro-1H-furo[3,4-c]pyrrol-5 (3H)-yl)methyl)cyclopropyl)methoxy)quinazolin-7-yl)-2,3-dihydro-1H-cyclopenta[a]naphthalen-7-ol]	24 nM	120 nM	–
C[C@@H]1COCCN1CC1(COc2nc(N3C[C@H]4CC[C@@H](C3)N4)c3ccc(-c4cc(O)cc5ccc6c(c45)CCC6)c(F)c3n2)CC1 [Example 25, 9-(4-((1R,5S)-3,8-diazabicyclo[3.2.1]octan-3-yl)-8-fluoro-2-((1-(((R)-3-methylmorpholino)methyl)cyclopropyl)methoxy)quinazolin-7-yl)-2,3-dihydro-1H-cyclopenta[a]naphthalen-7-ol]	18 nM	303 nM	–
Oc1cc(-c2ccc3c(N4C[C@H]5CC[C@@H](C4)N5)nc(OCC4(CN5CCOCC5)CC4)nc3c2F)c2c3c(ccc2c1)CCC3 [Example 26, 9-(4-((1R,5S)-3,8-diazabicyclo[3.2.1]octan-3-yl)-8-fluoro-2-((1-(morpholinomethyl)cyclopropyl)methoxy)quinazolin-7-yl)-2,3-dihydro-1H-cyclopenta[a]naphthalen-7-ol]	39 nM	195 nM	–
Oc1cc(-c2ccc3c(N4C[C@H]5CC[C@@H](C4)N5)nc(OCC4(CN5C6CCC5COC6)CC4)nc3c2F)c2c3c(ccc2c1)CCC3 [Example 27, 9-(2-((1-((3-oxa-8-azabicyclo[3.2.1]octan-8-yl)methyl)cyclopropyl)methoxy)-4-((1R,5S)-3,8-diazabicyclo[3.2.1]octan-3-yl)-8-fluoroquinazolin-7-yl)-2,3-dihydro-1H-cyclopenta[a]naphthalen-7-ol]	131 nM	370 nM	–
Oc1cc(-c2c(F)cc3c(N4C[C@H]5CC[C@@H](C4)N5)nc(OCC4(CN5C6CCC5COC6)CC4)nc3c2F)c2c3c(ccc2c1)CCC3 [Example 28, 9-(2-((1-((3-oxa-8-azabicyclo[3.2.1]octan-8-yl)methyl)cyclopropyl)methoxy)-4-((1R,5S)-3,8-diazabicyclo[3.2.1]octan-3-yl)-6,8-difluoroquinazolin-7-yl)-2,3-dihydro-1H-cyclopenta[a]naphthalen-7-ol]	87 nM	253 nM	–
Oc1cc(-c2c(F)cc3c(N4C[C@H]5CC[C@@H](C4)N5)nc(OCC4(CN5CCOCC5)CC4)nc3c2F)c2c3c(ccc2c1)CCC3 [Example 29, 9-(4-((1R,5S)-3,8-diazabicyclo[3.2.1]octan-3-yl)-6,8-difluoro-2-((1-(morpholinomethyl)cyclopropyl)methoxy)quinazolin-7-yl)-2,3-dihydro-1H-cyclopenta[a]naphthalen-7-ol]	44 nM	273 nM	–
